# From publication PMC5218480 (PLoS ONE, 2017)
# System: MV-4-11 cells
# Assay: Gene expression microarray analysis (Affymetrix PrimeView) and GSEA
# Type: cell-based, human
# Set-up: RFU PODN (11730768_x_at) / Fold change /veh PODN (11730768_x_at) / RFU LINC00158 (11744669_a_at) / Fold change /veh LINC00158 (11744669_a_at) / RFU DUSP10 (11751237_a_at) / Fold change /veh DUSP10 (11751237_a_at) / RFU ID3 (11757404_x_at) / Fold change /veh ID3 (11757404_x_at) / RFU PLEKHG5 (11737974_s_at) / Fold change /veh PLEKHG5 (11737974_s_at) / RFU LRRC4B (11730491_at) / Fold change /veh LRRC4B (11730491_at) / RFU GIMAP4 (11747438_a_at) / Fold change /veh GIMAP4 (11747438_a_at) / RFU KRT8 (11758183_x_at) / Fold change /veh KRT8 (11758183_x_at) / RFU CNN1 (11734310_a_at) / Fold change /veh CNN1 (11734310_a_at) / RFU VPS37D (11726825_at) / Fold change /veh VPS37D (11726825_at) / RFU C10orf10 (11716522_x_at) / Fold change /veh C10orf10 (11716522_x_at) / RFU KIR2DL2 /// KIR2DL4 /// KIR2DL5A /// KIR2DL5B /// KIR2DS1 /// KIR2DS2 /// KIR2DS3 /// KIR2DS4 /// KIR3DL3 /// KIR3DL3 /// KIR3DS1 (11738374_at) / Fold change /veh KIR2DL2 /// KIR2DL4 /// KIR2DL5A /// KIR2DL5B /// KIR2DS1 /// KIR2DS2 /// KIR2DS3 /// KIR2DS4 /// KIR3DL3 /// KIR3DL3 /// KIR3DS1 (11738374_at) / RFU C1QL1 (11718748_at) / Fold change /veh C1QL1 (11718748_at) / RFU TMPRSS4 (11747572_a_at) / Fold change /veh TMPRSS4 (11747572_a_at) / RFU HAMP (11756126_x_at) / Fold change /veh HAMP (11756126_x_at) / RFU RNFT2 (11725882_a_at) / Fold change /veh RNFT2 (11725882_a_at) / RFU NR4A2 (11747474_a_at) / Fold change /veh NR4A2 (11747474_a_at) / RFU ABCC12 (11746883_a_at) / Fold change /veh ABCC12 (11746883_a_at) / RFU TMEM136 (11760407_x_at) / Fold change /veh TMEM136 (11760407_x_at) / RFU CLDN22 /// WWC2 (11732394_at) / Fold change /veh CLDN22 /// WWC2 (11732394_at) / RFU HLA-DPB1 (11760878_x_at) / Fold change /veh HLA-DPB1 (11760878_x_at) / RFU SPINT1 (11716480_a_at) / Fold change /veh SPINT1 (11716480_a_at) / RFU GAP43 (11754022_s_at) / Fold change /veh GAP43 (11754022_s_at) / RFU A4GNT (11735810_at) / Fold change /veh A4GNT (11735810_at) / RFU PRB3 (11715151_x_at) / Fold change /veh PRB3 (11715151_x_at) / RFU TUBB4B (11761932_at) / Fold change /veh TUBB4B (11761932_at) / RFU CAPN14 (11732068_a_at) / Fold change /veh CAPN14 (11732068_a_at) / RFU TMCC2 (11721928_a_at) / Fold change /veh TMCC2 (11721928_a_at) / RFU IRGQ (11745062_a_at) / Fold change /veh IRGQ (11745062_a_at) / RFU FAM174B (11720279_a_at) / Fold change /veh FAM174B (11720279_a_at) / RFU TMPRSS4 (11748680_a_at) / Fold change /veh TMPRSS4 (11748680_a_at) / RFU FAM212B (11763350_a_at) / Fold change /veh FAM212B (11763350_a_at) / RFU PLEKHG5 (11743358_a_at) / Fold change /veh PLEKHG5 (11743358_a_at) / RFU ZSCAN30 (11745921_a_at) / Fold change /veh ZSCAN30 (11745921_a_at) / RFU CMKLR1 (11741424_a_at) / Fold change /veh CMKLR1 (11741424_a_at) / RFU LOC101060620 /// MAPK8IP1 (11723275_at) / Fold change /veh LOC101060620 /// MAPK8IP1 (11723275_at) / RFU SPTSSB (11747773_x_at) / Fold change /veh SPTSSB (11747773_x_at) / RFU PRSS12 (11739890_at) / Fold change /veh PRSS12 (11739890_at) / RFU BIN1 (11741810_x_at) / Fold change /veh BIN1 (11741810_x_at) / RFU WNT11 (11732464_a_at) / Fold change /veh WNT11 (11732464_a_at) / RFU C10orf10 (11716521_a_at) / Fold change /veh C10orf10 (11716521_a_at) / RFU C5orf56 (11738089_at) / Fold change /veh C5orf56 (11738089_at) / RFU CYB561 (11721691_x_at) / Fold change /veh CYB561 (11721691_x_at) / RFU ANKRD19P (11752326_a_at) / Fold change /veh ANKRD19P (11752326_a_at) / RFU OR2T12 /// OR2T33 /// OR2T8 (11738714_s_at) / Fold change /veh OR2T12 /// OR2T33 /// OR2T8 (11738714_s_at) / RFU VCAN (11748164_a_at) / Fold change /veh VCAN (11748164_a_at) / RFU JSRP1 (11732532_at) / Fold change /veh JSRP1 (11732532_at) / RFU KRTAP10-11 (11738290_x_at) / Fold change /veh KRTAP10-11 (11738290_x_at) / RFU MYO3A (11730013_a_at) / Fold change /veh MYO3A (11730013_a_at) / RFU EBF3 (11725865_a_at) / Fold change /veh EBF3 (11725865_a_at) / RFU CAMK2N1 (11719241_x_at) / Fold change /veh CAMK2N1 (11719241_x_at) / RFU C5orf56 (11738088_a_at) / Fold change /veh C5orf56 (11738088_a_at) / RFU OLFML3 (11715873_a_at) / Fold change /veh OLFML3 (11715873_a_at) / RFU LOC100653217 /// NTM (11731650_a_at) / Fold change /veh LOC100653217 /// NTM (11731650_a_at) / RFU MAPK11 (11762145_a_at) / Fold change /veh MAPK11 (11762145_a_at) / RFU FIZ1 (11724087_x_at) / Fold change /veh FIZ1 (11724087_x_at) / RFU OASL (11726364_x_at) / Fold change /veh OASL (11726364_x_at) / RFU SOX15 (11748057_x_at) / Fold change /veh SOX15 (11748057_x_at) / RFU CD79A (11719716_a_at) / Fold change /veh CD79A (11719716_a_at) / RFU HIST1H1D (11736915_at) / Fold change /veh HIST1H1D (11736915_at) / RFU CASKIN2 (11723855_a_at) / Fold change /veh CASKIN2 (11723855_a_at) / RFU LOC730098 (11760151_x_at) / Fold change /veh LOC730098 (11760151_x_at) / RFU OR4N2 (11742367_at) / Fold change /veh OR4N2 (11742367_at) / RFU PRRT2 (11749266_a_at) / Fold change /veh PRRT2 (11749266_a_at) / RFU SNX32 (11753110_a_at) / Fold change /veh SNX32 (11753110_a_at) / RFU CDHR5 (11726645_a_at) / Fold change /veh CDHR5 (11726645_a_at) / RFU RCAN1 (11760418_a_at) / Fold change /veh RCAN1 (11760418_a_at) / RFU FAM167A (11723789_a_at) / Fold change /veh FAM167A (11723789_a_at) / RFU FAM26E (11764081_at) / Fold change /veh FAM26E (11764081_at) / RFU ISYNA1 (11749810_s_at) / Fold change /veh ISYNA1 (11749810_s_at) / RFU ACY1 (11761880_at) / Fold change /veh ACY1 (11761880_at) / RFU 11764098_at / Fold change /veh 11764098_at / RFU SAMD14 (11745864_x_at) / Fold change /veh SAMD14 (11745864_x_at) / RFU NPB (11741838_a_at) / Fold change /veh NPB (11741838_a_at) / RFU TMPRSS6 (11731388_a_at) / Fold change /veh TMPRSS6 (11731388_a_at) / RFU KRTAP10-2 (11738614_at) / Fold change /veh KRTAP10-2 (11738614_at) / RFU ARHGAP8 /// PRR5-ARHGAP8 (11727945_x_at) / Fold change /veh ARHGAP8 /// PRR5-ARHGAP8 (11727945_x_at) / RFU KRTAP5-7 /// NADSYN1 (11734609_at) / Fold change /veh KRTAP5-7 /// NADSYN1 (11734609_at) / RFU RASL12 (11751679_a_at) / Fold change /veh RASL12 (11751679_a_at) / RFU CDKN2B (11736163_a_at) / Fold change /veh CDKN2B (11736163_a_at) / RFU PRF1 (11729649_at) / Fold change /veh PRF1 (11729649_at) / RFU, ZNF638 /// ZNF638-IT1 / Fold change vs veh, ZNF638 /// ZNF638-IT1 / RFU, PANK3 / Fold change vs veh, PANK3 / RFU, SH3YL1 / Fold change vs veh, SH3YL1 / RFU, ZEB2 / Fold change vs veh, ZEB2 / RFU, NRIP1 / Fold change vs veh, NRIP1 / RFU, PTTG1IP / Fold change vs veh, PTTG1IP / RFU, CAPN2 / Fold change vs veh, CAPN2 / RFU, MED14 / Fold change vs veh, MED14 / RFU, SNORA58 / Fold change vs veh, SNORA58 / RFU, C1orf63 / Fold change vs veh, C1orf63 / RFU, LRRFIP1 / Fold change vs veh, LRRFIP1 / RFU, NDUFAF7 / Fold change vs veh, NDUFAF7 / RFU, SLC12A2 / Fold change vs veh, SLC12A2 / RFU, IBTK / Fold change vs veh, IBTK / RFU, ESF1 / Fold change vs veh, ESF1 / Fold change vs veh, TMEM50B / RFU, TAOK1 / Fold change vs veh, TAOK1 / RFU, ACBD3 / Fold change vs veh, ACBD3 / RFU, TMA16 / Fold change vs veh, TMA16 / RFU, RWDD3 / Fold change vs veh, RWDD3 / RFU, BCAT1 / Fold change vs veh, BCAT1 / RFU, EDEM3 / Fold change vs veh, EDEM3 / RFU, TMEM33 / Fold change vs veh, TMEM33 / RFU, WDR75 / Fold change vs veh, WDR75 / RFU, AHCTF1 / Fold change vs veh, AHCTF1 / RFU, TFRC / Fold change vs veh, TFRC / RFU, ZDHHC17 / Fold change vs veh, ZDHHC17 / RFU, NOM1 / Fold change vs veh, NOM1 / RFU, ARL8B / Fold change vs veh, ARL8B / RFU, ZBTB11 / Fold change vs veh, ZBTB11 / RFU, TAMM41 / Fold change vs veh, TAMM41 / RFU, KIAA1704 /// LOC100996395 / Fold change vs veh, KIAA1704 /// LOC100996395 / RFU, ING1 / Fold change vs veh, ING1 / RFU, TRMT61B / Fold change vs veh, TRMT61B / RFU, FUBP3 / Fold change vs veh, FUBP3 / RFU, TP53 / Fold change vs veh, TP53 / RFU, TNKS2 / Fold change vs veh, TNKS2 / RFU, ZFP14 / Fold change vs veh, ZFP14 / RFU, ACTR2 / Fold change vs veh, ACTR2 / RFU, PPP3R1 / Fold change vs veh, PPP3R1 / RFU, PIK3R1 / Fold change vs veh, PIK3R1 / RFU, HNRNPA1 / Fold change vs veh, HNRNPA1 / RFU, RNF170 / Fold change vs veh, RNF170 / RFU, ZNF28 / Fold change vs veh, ZNF28 / RFU, RNGTT / Fold change vs veh, RNGTT / RFU, OGT / Fold change vs veh, OGT / RFU, BRD1 / Fold change vs veh, BRD1 / RFU, MARS / Fold change vs veh, MARS / RFU, ZNF655 / Fold change vs veh, ZNF655 / RFU, FAHD1 / Fold change vs veh, FAHD1 / RFU, BDP1 / Fold change vs veh, BDP1 / RFU, LRRCC1 / Fold change vs veh, LRRCC1 / RFU, ARID1A / Fold change vs veh, ARID1A / RFU, ZNF146 / Fold change vs veh, ZNF146 / RFU, ZNF330 / Fold change vs veh, ZNF330 / RFU, GPN3 / Fold change vs veh, GPN3 / RFU, C9orf123 / Fold change vs veh, C9orf123 / RFU, N4BP2L2 / Fold change vs veh, N4BP2L2 / RFU, ARFIP1 / Fold change vs veh, ARFIP1 / RFU, FAM179B / Fold change vs veh, FAM179B / RFU, BCL10 / Fold change vs veh, BCL10 / RFU, UHRF1BP1L / Fold change vs veh, UHRF1BP1L / RFU, BET1 / Fold change vs veh, BET1 / RFU, CNOT2 / Fold change vs veh, CNOT2 / RFU, ZNF268 / Fold change vs veh, ZNF268 / Fold change vs veh, ZNF507 / RFU, DGCR2 / Fold change vs veh, DGCR2 / RFU, WDSUB1 / Fold change vs veh, WDSUB1 / Fold change vs veh, HSP90B1 /// MIR3652 / RFU, ADSS / Fold change vs veh, ADSS / RFU, GK / Fold change vs veh, GK / RFU, ZNF148 / Fold change vs veh, ZNF148 / RFU, TAF9 / Fold change vs veh, TAF9 / RFU, SLC1A5 / Fold change vs veh, SLC1A5 / RFU, SLMO2 / Fold change vs veh, SLMO2 / RFU, ABCC4 / Fold change vs veh, ABCC4 / RFU, LOC101060439 /// RAP1B / Fold change vs veh, LOC101060439 /// RAP1B / RFU, RFX7 / Fold change vs veh, RFX7 / RFU, GTPBP10 / Fold change vs veh, GTPBP10 / RFU, CNEP1R1 / Fold change vs veh, CNEP1R1 / RFU, BIVM-ERCC5 /// ERCC5 / Fold change vs veh, BIVM-ERCC5 /// ERCC5 / RFU, ILF3 / Fold change vs veh, ILF3 / RFU 11762660_at / Fold change /veh 11762660_at / RFU VCAN (11757783_s_at) / Fold change /veh VCAN (11757783_s_at) / RFU DDX43 (11728927_at) / Fold change /veh DDX43 (11728927_at) / RFU KRT8 (11758188_x_at) / Fold change /veh KRT8 (11758188_x_at) / RFU NKD1 (11759106_at) / Fold change /veh NKD1 (11759106_at) / RFU SRD5A1 (11742802_a_at) / Fold change /veh SRD5A1 (11742802_a_at) / RFU TPSAB1 /// TPSB2 (11721975_s_at) / Fold change /veh TPSAB1 /// TPSB2 (11721975_s_at) / RFU GSTM3 (11746129_a_at) / Fold change /veh GSTM3 (11746129_a_at) / RFU IL23R (11737362_x_at) / Fold change /veh IL23R (11737362_x_at) / RFU TMEM51 (11727254_a_at) / Fold change /veh TMEM51 (11727254_a_at) / RFU PIWIL2 (11732686_x_at) / Fold change /veh PIWIL2 (11732686_x_at) / RFU ORM1 (11744905_x_at) / Fold change /veh ORM1 (11744905_x_at) / RFU CCDC152 (11743942_at) / Fold change /veh CCDC152 (11743942_at) / RFU ECM1 (11717891_a_at) / Fold change /veh ECM1 (11717891_a_at) / RFU IL23R (11748794_a_at) / Fold change /veh IL23R (11748794_a_at) / RFU TNFAIP8L3 (11732012_x_at) / Fold change /veh TNFAIP8L3 (11732012_x_at) / RFU MBOAT4 (11741988_at) / Fold change /veh MBOAT4 (11741988_at) / RFU 11764193_at / Fold change /veh 11764193_at / RFU TMEM53 (11763286_at) / Fold change /veh TMEM53 (11763286_at) / RFU MAGEB2 (11727129_at) / Fold change /veh MAGEB2 (11727129_at) / RFU TMEM200A (11744735_a_at) / Fold change /veh TMEM200A (11744735_a_at) / RFU CCDC152 (11751479_a_at) / Fold change /veh CCDC152 (11751479_a_at) / RFU FAM211A (11726209_a_at) / Fold change /veh FAM211A (11726209_a_at) / RFU RGS16 (11746705_a_at) / Fold change /veh RGS16 (11746705_a_at) / RFU VCAN (11755009_s_at) / Fold change /veh VCAN (11755009_s_at) / RFU RHOB (11743442_s_at) / Fold change /veh RHOB (11743442_s_at) / RFU RGS16 (11720943_a_at) / Fold change /veh RGS16 (11720943_a_at) / RFU RGS16 (11720944_at) / Fold change /veh RGS16 (11720944_at) / RFU, VPS4B / Fold change vs veh, VPS4B / RFU, CREB1 / Fold change vs veh, CREB1 / RFU, DNAJC13 / Fold change vs veh, DNAJC13 / RFU, GNAQ / Fold change vs veh, GNAQ / RFU, CDK5R1 / Fold change vs veh, CDK5R1 / RFU, ZRANB3 / Fold change vs veh, ZRANB3 / RFU, CUL4A / Fold change vs veh, CUL4A / RFU, CCNY / Fold change vs veh, CCNY / RFU, UFL1 / Fold change vs veh, UFL1 / RFU, COG3 / Fold change vs veh, COG3 / RFU, DIAPH2 / Fold change vs veh, DIAPH2 / RFU, SKA2 / Fold change vs veh, SKA2 / RFU, AFF3 / Fold change vs veh, AFF3 / RFU, LMF1 / Fold change vs veh, LMF1 / RFU, IPO11 / Fold change vs veh, IPO11 / RFU, DFFB / Fold change vs veh, DFFB / RFU, FOXP1 / Fold change vs veh, FOXP1 / RFU, CARD8 / Fold change vs veh, CARD8 / RFU, STRN3 / Fold change vs veh, STRN3 / RFU, ADK / Fold change vs veh, ADK / RFU, RASSF2 / Fold change vs veh, RASSF2 / RFU, WIPF1 / Fold change vs veh, WIPF1 / RFU, LARP1B / Fold change vs veh, LARP1B / RFU, RASA1 / Fold change vs veh, RASA1 / RFU, RB1 / Fold change vs veh, RB1 / RFU, PPFIA1 / Fold change vs veh, PPFIA1 / RFU, MAT2A / Fold change vs veh, MAT2A / RFU, CCT5 / Fold change vs veh, CCT5 / RFU, WDR92 / Fold change vs veh, WDR92 / RFU, CUX1 / Fold change vs veh, CUX1 / RFU, TTC7A / Fold change vs veh, TTC7A / RFU, TMEM135 / Fold change vs veh, TMEM135 / RFU, DEPTOR / Fold change vs veh, DEPTOR / RFU, CPM / Fold change vs veh, CPM / RFU, DNAJB6 / Fold change vs veh, DNAJB6 / RFU, CACNA2D3 / Fold change vs veh, CACNA2D3 / RFU, DTX4 / Fold change vs veh, DTX4 / RFU, TFCP2 / Fold change vs veh, TFCP2 / RFU, GMCL1 /// GMCL1P1 / Fold change vs veh, GMCL1 /// GMCL1P1 / RFU, AEBP2 / Fold change vs veh, AEBP2 / RFU, SNHG1 /// SNORD22 /// SNORD25 /// SNORD26 /// SNORD27 /// SNORD28 /// SNORD29 /// SNORD31 / Fold change vs veh, SNHG1 /// SNORD22 /// SNORD25 /// SNORD26 /// SNORD27 /// SNORD28 /// SNORD29 /// SNORD31 / Fold change (Aza/veh), C12orf56 (ProbeSet 11735607_a_at) / Fold change (ACY-1035/veh), C12orf56 (ProbeSet 11735607_a_at) / Fold change (Aza/veh), FGFR1OP (ProbeSet 11751329_s_at) / Fold change (ACY-1035/veh), FGFR1OP (ProbeSet 11751329_s_at) / Fold change (Aza/veh), VPS36 (ProbeSet 11739960_a_at) / Fold change (ACY-1035/veh), VPS36 (ProbeSet 11739960_a_at) / RFU SYPL1 (11715823_x_at) / Fold change /veh SYPL1 (11715823_x_at) / RFU IGFBP7 (11715501_s_at) / Fold change /veh IGFBP7 (11715501_s_at) / RFU REEP3 (11722064_at) / Fold change /veh REEP3 (11722064_at) / RFU IGLL1 (11728026_x_at) / Fold change /veh IGLL1 (11728026_x_at): dose or concentration left out as unconfirmed
# Settings: ProbeSet 11739696_s_at; LIST D
smiles,measurement,value
Nc1ccc(-c2cccs2)cc1NC(=O)c1ccc2c(c1)cc(C1CC1)n2CCN1CCOCC1 [ACY-1035],"Fold change vs veh, AFF3",1.00
